The text below walks through data of patent US20240277746A1, “OPHTHALMIC NANO-DISPERSION COMPOSITION, A METHOD OF PREPARATION THEREOF, AND FORMULATION FOR CORNEAL EPITHELIAL WOUND HEALING” (THE UNIVERSITY OF JORDAN, priority 2021, published 2024).

Data set [1] can be described thus: Corneal accumulation study (AA-2G entrapped within the corneal tissue after the permeation study). Conditions: Qr6 hr; AA-2G in corneal tissue; mean ± SD, n = 3. The class given is in vitro ADME, sheep. Here is the method:
(§1) In vitro permeation and accumulation studies were performed on freshly excised sheep cornea obtained from a local slaughterhouse within an hour after the slaughter of the animals.
To quantify the amount of AA-2G entrapped within the corneal tissue after finishing the in vitro permeation study, the diffusion cells were dismantled, the corneas were quickly washed with normal saline to remove the surface-attached AA-2G, then the diffusional areas were cut out and digested using about 0.5 ml of 0.5 M NaOH for about 12 hours at about 37° C. in a shaker incubator to obtain a solution. After that, about 0.5 ml of ethanol and about 1 ml of acetonitrile were added to this solution to precipitate the dissolved proteins. The samples were then centrifuged at about 8000 rpm for about 10 minutes. The supernatants were taken and diluted with the mobile phase for HPLC analysis.

Data set [2] is described as follows: Transcorneal permeation study, Franz-type diffusion cells. In kind it is in vitro ADME, sheep. Conditions: AA-2G, mean ± SD, n = 3. On the procedure:
as §1
After the preparation of excised cornea, it was directly fixed between the donor and receptor compartments of Franz-type diffusion cells in such a way that its epithelial surface was facing the donor compartment and the endothelial surface was facing the receptor compartment.
The diameter of the diffusion area of the diffusion cells was 11 mm, producing an effective diffusion area of about 0.95 cm^2. The receptor compartment was filled with about 12 ml of normal saline solution stirred using teflon-coated magnetic stirring bars and maintained at a temperature of about 37° C. by circulating warm water through the water jacket around the receptor compartment. Special care was taken to expel air bubbles from the receptor fluid.
The permeation study was carried out by placing about 1 ml of either the prepared AA-2G loaded S/O nano-dispersion, AA-2G solution or normal saline on top of the cornea in the donor compartment.
An aliquot (about 0.3 ml) of the receptor fluid was withdrawn at about 0.5, 1, 1.5, 2, 3, 4, and 6 hours after beginning the experiment and replaced by an equal volume of fresh receptor solution. The receptor fluid content of AA-2G was determined quantitatively using the High-performance liquid chromatography (“HPLC”) method.

Data set [3] concerns rabbit corneas subjected to epithelial debridement. Put plainly: Corneal epithelial healing in rabbit eyes. The class given is in vivo. Here is the method:
Rabbits were used to evaluate the ability of formulations to accelerate corneal epithelial wound healing in-vivo. Xylazine was used to induce analgesia in the rabbits with intramuscular injections of about 6 mg/kg. Proparacaine 0.5% weight/volume eye drops were also used as supplemental analgesia.
The eyes were kept open during the depredation using a speculum.
Using cotton buds, about 10% of alcohol was applied to the central regions of rabbit corneas for about 20 seconds. Then epithelia within an 8 mm diameter circle in were mechanically scraped using a blunt spatula. After that, eyes were washed several times using normal saline to remove scraped epithelial cells and residual alcohol that can induce corneal irritations.
The rabbits were divided into five treatment groups. Each group contained four animals. Right eyes were selected to receive normal saline while left eyes were assigned to receive the treatment.
The treatment was either about 200 μl (4 drops) of 5% ascorbic acid solution in 0.2 N sodium phosphate buffer pH 7.4, blank oily eye drops, AA as oily eye drops and AA-2G as oily eye drops.
The treatments were administered topically to the wounded eyes, along with topical ofloxacin antibiotic drops (Oflox, Allergan, Inc.), immediately following surgery and 6, 12, 24, 30, 36, 48, 54, 60 and 72-hour post-surgery.
Throughout the healing process, rabbits were closely monitored for evidence of distress or infection, and epithelial wound closure was examined at each dosing time point by applying about 50 μL of 0.25% topical fluorescein eye drops to the injured cornea and imaging the wound under cobalt blue light.
The area of each epithelial defect was measured using “ImageJ”, an image analysis software. Percent healing (“H %”) was calculated as a percentage of the initial wound area. According to the following equation: […]
Wherein Ai indicates the wound area at a given time point and A0 indicates the initial wound area.

On to `O=C1O[C@H]([C@@H](O)CO)C(O)=C1O[C@H]1O[C@H](CO)[C@@H](O)[C@H](O)[C@H]1O` [AA-2G solution, Ascorbyl glucoside], for which the “Amount accumulated per unit area Qr (accumulation)” value in data set [1] is on record as 30.91 ± 1.04 μg/cm2. In addition, the “Amount permeated per unit area Qt” value is 0.00 μg/cm2 in data set [2] (Time 0.5 hr); 0.00 μg/cm2 in data set [2] (Time 1 hr); 0.00 μg/cm2 in data set [2] (Time 1.5 hr); 0.00 μg/cm2 in data set [2] (Time 2 hr); 4.56 ± 3.29 μg/cm2 in data set [2] (Time 3 hr); 11.21 ± 3.67 μg/cm2 in data set [2] (Time 4 hr). The “Amount permeated per unit area Qt” value in data set [2] (Time 6 hr) is 41.02 ± 0.21 μg/cm2.

In the case of `O=C1O[C@H]([C@@H](O)CO)C(O)=C1O` [AA solution, ascorbic acid], the “relative healing rate (normalized to normal saline)” value in data set [3] (6-hour) amounted to 3.28; in data set [3] (12-hours), 1.39. In addition, in data set [3] (after 6 hours, topical, rabbit, n=4), the “% healing” value is on record as 22.9%. The “wound-healing rate enhancement vs control (normal saline)” value in data set [3] (first 6 hours) is reported as “up to 3.28 folds”. Also, the “effect on corneal epithelial healing” value in data set [3] (rabbit eyes, topical, vs normal saline) is “significantly increased”.
